# From patent US12415834B2, “GhR-binding peptide and composition comprising same” (priority 2021, dated 2025)
# Where two headings read alike, the source gives them in different places. Starred links: 1 amine or outer side, 2 acyl side, 3 side chain; linkers in the order of their positions; H or OH if unused. Positions of bridges follow the written chain, without caps; N, C: chain ends. Non-standard residues stand in square brackets, D forms with d. Residues, ends and D or L forms follow the SMILES beside them. Groups on a side chain read outwards from the residue. *: point of attachment. X14 = NC(=O)[C@H](CCCCN*)NC(=O)COCCOCCNC(=O)COCCOCCNC(=O)CC[C@H](NC(=O)CC[C@H](NC(=O)CCCCCCCCCCCCCCC(=O)O)C(=O)O)C(=O)O; X10 = NC(=O)[C@H](CCCCN*)NC(=O)CC[C@H](NC(=O)CC[C@H](NC(=O)CCCc1ccc(I)cc1)C(=O)O)C(=O)O; Trp(1-CH2CO) = O=C([C@H](Cc1cn(CC(=O)[*:3])c2ccccc12)N[*:1])[*:2]; Trp(5-OMe) = COc1ccc2[nH]cc(C[C@H](N)C(=O)O)c2c1; Butanoyl(4-(4-I-phenyl)) = O=C(CCCc1ccc(I)cc1)*; Trp(5-OH) = N[C@@H](Cc1c[nH]c2ccc(O)cc12)C(=O)O; Phe(4-COOH) = N[C@@H](Cc1ccc(C(=O)O)cc1)C(=O)O; X7 = O=C(O)CN1CCC(N[*:1])(C(=O)[*:2])CC1; C16 diacid = O=C(O)CCCCCCCCCCCCCCC(=O)*; γGlu = O=C(O)[C@H](CCC(=O)[*:2])N[*:1]; Hexanoyl(6-Ph) = O=C(CCCCCc1ccccc1)*; NMeK = CN[C@@H](CCCCN)C(=O)O; Aib = CC(C)(N)C(=O)O
# Molecular target: T1, Recombinant human GhR-Fc protein (Homo sapiens, UniProt P10912)
# T1 construct: purchased R&D Systems
# Assay: SPR binding assay (Biacore T200, single-cycle kinetics) of peptides against immobilized human GhR-Fc
# Settings: SPR, hGhR, KD calculated from ka and kd, read-out: KD
# How it was run: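 Human GhR-Fc amine-coupled to a CM5 chip at pH 4.0; running buffer HBS-EP with 1% DMSO. Peptides measured by single-cycle kinetics on Biacore T200, with solvent correction and baseline subtraction. KD calculated from fitted ka and kd.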
# T1 sequence (P10912 with tags, fused parts or gaps limits assumed): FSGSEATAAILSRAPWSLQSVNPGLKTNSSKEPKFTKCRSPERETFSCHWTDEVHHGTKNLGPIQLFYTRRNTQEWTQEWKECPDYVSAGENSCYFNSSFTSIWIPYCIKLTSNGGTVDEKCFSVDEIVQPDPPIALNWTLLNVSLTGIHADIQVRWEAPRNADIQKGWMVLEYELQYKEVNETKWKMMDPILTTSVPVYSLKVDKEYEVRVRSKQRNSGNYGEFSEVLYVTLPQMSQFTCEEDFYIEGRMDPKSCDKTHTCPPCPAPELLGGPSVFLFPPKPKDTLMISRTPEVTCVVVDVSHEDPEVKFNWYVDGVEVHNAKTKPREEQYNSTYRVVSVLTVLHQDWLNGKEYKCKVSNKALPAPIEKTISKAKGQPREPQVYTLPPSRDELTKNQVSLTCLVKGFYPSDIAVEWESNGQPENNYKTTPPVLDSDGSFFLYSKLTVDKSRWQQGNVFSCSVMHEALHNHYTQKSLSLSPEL
Kd (Table 1 bicyclic peptides) [nM],Kd (Table 2 monocyclic peptides) [nM],SMILES
3.61,,CC(C)[C@@H]1NC(=O)[C@H](C(C)C)NC(=O)[C@@H]2CCCCNC(=O)Cn3cc(c4ccccc43)C[C@H](NC(=O)[C@H](CC(N)=O)NC(=O)[C@H](CO)NC1=O)C(=O)N[C@@H](Cc1ccc(C(=O)O)cc1)C(=O)N[C@@H](CCCCN)C(=O)N[C@@H](Cc1c[nH]c3ccc(O)cc13)C(=O)NC(C)(C)C(=O)N[C@@H](C(C)C)C(=O)N[C@H](C(=O)NCCCC[C@H](NC(=O)COCCOCCNC(=O)COCCOCCNC(=O)CC[C@H](NC(=O)CC[C@H](NC(=O)CCCCCCCCCCCCCCC(=O)O)C(=O)O)C(=O)O)C(N)=O)CSCC(=O)N[C@@H](Cc1ccc(C(=O)O)cc1)C(=O)N2C [Compound 64] ({CH2CO}-[Phe(4-COOH)][NMeK]VVSN[Trp(1-CH2CO)][Phe(4-COOH)]K[Trp(5-OH)][Aib]VC-X14; lactam 2-7; thioether N-13)
,4.13,COc1ccc2[nH]cc(C[C@@H]3NC(=O)[C@H](CC(N)=O)NC(=O)[C@H](CO)NC(=O)[C@H](C(C)C)NC(=O)[C@H](C(C)C)NC(=O)[C@H](CCCCNC(=O)CC[C@H](NC(=O)CC[C@H](NC(=O)CCCc4ccc(I)cc4)C(=O)O)C(=O)O)N(C)C(=O)[C@H](Cc4ccc(O)cc4)NC(=O)CSC[C@@H](C(N)=O)NC(=O)[C@H](C(C)C)NC(=O)C4(CCN(CC(=O)O)CC4)NC(=O)[C@H](Cc4c[nH]c5ccc(O)cc45)NC(=O)[C@H](CCCCN)NC(=O)[C@H](Cc4ccc(C(=O)O)cc4)NC3=O)c2c1 [Compound 50] ({CH2CO}-Y[NMeK]([γGlu-γGlu-Butanoyl(4-(4-I-phenyl))])VVSN[Trp(5-OMe)][Phe(4-COOH)]K[Trp(5-OH)][X7]VC-NH2; thioether N-13)

# Continued, molecule first:
SMILES,Kd (Table 1 bicyclic peptides) [nM],Kd (Table 2 monocyclic peptides) [nM]
CC(C)[C@@H]1NC(=O)[C@H](C(C)C)NC(=O)[C@@H]2CCCCNC(=O)Cn3cc(c4ccccc43)C[C@H](NC(=O)[C@H](CC(N)=O)NC(=O)[C@H](CO)NC1=O)C(=O)N[C@@H](Cc1ccc(O)cc1)C(=O)N[C@@H](CCCCN)C(=O)N[C@@H](Cc1c[nH]c3ccc(O)cc13)C(=O)NC(C)(C)C(=O)N[C@@H](C(C)C)C(=O)N[C@H](C(=O)NCC(=O)N1CCC[C@H]1C(=O)N[C@H](CO)C(=O)N[C@H](CO)C(=O)N[C@H](CO)C(=O)N[C@@H](CCCCNC(=O)CC[C@H](NC(=O)CC[C@H](NC(=O)CCCCCCCCCCCCCCC(=O)O)C(=O)O)C(=O)O)C(N)=O)CSCC(=O)N[C@@H](Cc1ccc(C(=O)O)cc1)C(=O)N2C [Compound 20] ({CH2CO}-[Phe(4-COOH)][NMeK]VVSN[Trp(1-CH2CO)]YK[Trp(5-OH)][Aib]VCGP[dS][dS][dS]K([γGlu-γGlu-C16 diacid])-NH2; lactam 2-7; thioether N-13),1.25,
CC(C)[C@@H]1NC(=O)[C@H](C(C)C)NC(=O)[C@@H]2CCCCNC(=O)Cn3cc(c4ccccc43)C[C@H](NC(=O)[C@H](CC(N)=O)NC(=O)[C@H](CO)NC1=O)C(=O)N[C@@H](Cc1ccc(C(=O)O)cc1)C(=O)N[C@@H](CCCCN)C(=O)N[C@@H](Cc1c[nH]c3ccc(O)cc13)C(=O)NC(C)(C)C(=O)N[C@@H](C(C)C)C(=O)N[C@H](C(=O)NCCCC[C@H](NC(=O)CC[C@H](NC(=O)CC[C@H](NC(=O)CCCc1ccc(I)cc1)C(=O)O)C(=O)O)C(N)=O)CSCC(=O)N[C@@H](Cc1ccc(O)cc1)C(=O)N2C [Compound 26] ({CH2CO}-Y[NMeK]VVSN[Trp(1-CH2CO)][Phe(4-COOH)]K[Trp(5-OH)][Aib]VC-X10; lactam 2-7; thioether N-13),1.59,
COc1ccc2[nH]cc(C[C@@H]3NC(=O)[C@H](CC(N)=O)NC(=O)[C@H](CO)NC(=O)[C@H](C(C)C)NC(=O)[C@H](C(C)C)NC(=O)[C@H](CCCCNC(=O)CC[C@H](NC(=O)CCCCCc4ccccc4)C(=O)O)N(C)C(=O)[C@H](Cc4ccc(C(=O)O)cc4)NC(=O)CSC[C@@H](C(N)=O)NC(=O)[C@H](C(C)C)NC(=O)C4(CCN(CC(=O)O)CC4)NC(=O)[C@H](Cc4c[nH]c5ccc(O)cc45)NC(=O)[C@H](CCCCN)NC(=O)[C@H](Cc4ccc(C(=O)O)cc4)NC3=O)c2c1 [Compound 38] ({CH2CO}-[Phe(4-COOH)][NMeK]([γGlu-Hexanoyl(6-Ph)])VVSN[Trp(5-OMe)][Phe(4-COOH)]K[Trp(5-OH)][X7]VC-NH2; thioether N-13),,2.82
